Measurements from patent US20250066319A1, “NOVEL ACID ADDITION SALT AND CRYSTALLINE FORM OF (2R, 3S)-2-(3-(4,5-DICHLORO-1H-BENZO[d]IMIDAZOL-1-YL)PROPYL)PIPERIDIN-3-OL” (Daewoong Pharmaceutical Co., Ltd., priority 2021, published 2025).
Where a name gives a salt, the structure may show the parent alone.

Key:
[1] = Stability confirmation: severe test with respect to moisture, HPLC peak area of main component; type: physicochemical; details: 93% RH, open beaker, Monohydrochloride
Experimental: (§1) The acid addition salts prepared in some Examples and Comparative Examples were subjected to stability tests against high temperature and high humidity.
And, the severe tests with respect to moisture were performed by placing 50 mg of a sample in a 10 ml beaker, and measuring the content of impurities using HPLC (Azura, KNAUER, P6.1 1 L, DAD 6.1 L) after 1 week, 2 weeks, 4 weeks, and 8 weeks while storing the sample in a 93% RH desiccator in a state that the lid was not closed so that the sample has sufficient contact with the moisture in the air.
(§2) At a fixed time after the start of the test, one vial or beaker was taken out from each time point (the number of samples per test: n=1), and impurities were analyzed using HPLC under the conditions shown in Table 3 below. Then, the peak area was determined through integration for all the detected peaks, and then the relative peak area (%) for the main component was calculated and expressed as an average value.

[2] = Differential scanning calorimetry analysis after severe test with respect to temperature; type: physicochemical; details: high temperature condition (60° C.), 1 week and 8 weeks; Monohydrochloride
Experimental: For (2R,3S)-2-(3-(4,5-dichloro-1H-benzo[d]imidazol-1-yl)propyl)piperidin-3-ol monohydrochloride prepared in Example 1-1 and (2R,3S)-2-(3-(4,5-dichloro-1H-benzo[d]imidazol-1-yl)propyl)piperidin-3-ol dihydrochloride prepared in Comparative Example 1, each beaker was taken out 1 week and 8 weeks after the start of the test from the desiccator where the severe tests with respect to temperature were in progress, and the differential scanning calorimetry analysis was performed. At this time, the differential scanning calorimetry analysis was performed using a differential scanning calorimeter (DSC Q20, manufactured by TA Instruments) in a tightly closed pan under nitrogen purge at a scan rate of 10° C./min while raising the temperature from 20° C. to 300° C.

[3] = Hygroscopicity test (weight change in desiccators of constant relative humidity); type: physicochemical; parameters: scale not given here; details: room temperature, one day
Experimental: The hygroscopicity tests of the acid addition salts prepared in Examples 1-1 to 1-6 and Comparative Example 1 were performed.
After one day, the change in weight was measured, then transferred to another desiccator and the previous experiment was repeated. At this time, for sorption analysis, the weight change was measured by moving the sample from a low-humidity desiccator to a high-humidity desiccator, and for desorption analysis, the weight change was measured by transferring the sample from a high-humidity desiccator with high humidity to a low-humidity desiccator.

[4] = Stability confirmation: severe test with respect to temperature, HPLC peak area of main component; type: physicochemical; details: 60° C., relative humidity less than 10%, Monohydrochloride
Experimental: as §1
Specifically, the severe tests with respect to temperature were performed by placing 50 mg of a sample in a vial, closing the lid, and then measuring the content of impurities using HPLC (Azura, KNAUER, P6.1 1 L, DAD 6.1 L) after 1 week, 2 weeks, 4 weeks, and 8 weeks while storing in a chamber at 60° C. and a relative humidity of less than 10%.
as §2

[5] = biological target: T1, PRS protein (prolyl-tRNA synthetase, PRS portion of EPRS) (Homo sapiens, UniProt P07814); assay: PRS enzyme activity inhibition experiment; type: biochemical; details: [3H]proline, 37° C., 5 to 10 minutes
T1 construct: the portion corresponding to PRS in cDNA of EPRS was subcloned; made in house
T1 sequence (P07814 1007-1512 limits assumed): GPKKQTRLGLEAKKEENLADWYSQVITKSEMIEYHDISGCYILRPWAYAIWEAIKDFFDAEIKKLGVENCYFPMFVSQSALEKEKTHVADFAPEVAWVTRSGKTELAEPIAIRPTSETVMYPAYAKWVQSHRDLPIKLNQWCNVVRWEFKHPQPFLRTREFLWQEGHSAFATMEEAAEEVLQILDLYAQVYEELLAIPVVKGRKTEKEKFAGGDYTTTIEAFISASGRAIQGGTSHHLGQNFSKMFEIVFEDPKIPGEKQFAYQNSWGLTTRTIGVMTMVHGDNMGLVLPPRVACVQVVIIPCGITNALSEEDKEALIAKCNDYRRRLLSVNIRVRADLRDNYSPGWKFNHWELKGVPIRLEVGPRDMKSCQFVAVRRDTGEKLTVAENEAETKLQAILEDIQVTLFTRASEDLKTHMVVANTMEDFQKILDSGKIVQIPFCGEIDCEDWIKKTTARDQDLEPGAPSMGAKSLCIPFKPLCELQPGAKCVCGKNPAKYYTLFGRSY
Experimental: IC50 values of PRS enzyme activity inhibition of the (2R,3S)-2-(3-(4,5-dichloro-1H-benzo[d]imidazol-1-yl)propyl)piperidin-3-ol monohydrochloride prepared in Example 1-1 were measured as follows.
Specifically, the portion corresponding to PRS in cDNA of EPRS was subcloned, and the obtained high-purity PRS protein was purified and used in the experiment. The compounds (1 μM) prepared in Examples were added into the reaction buffer (20 mM KPO4 (pH 7.4), 6 mM MgAc, 5 mM ATP, […] tRNA, 0.5 mM DTT, 20 mCi[^3H]proline (1 mCi/mL)) and allowed to react at 37° C. for 5 to 10 minutes. The reaction was terminated with 3M paper that was in advance dried by addition of 5% TCA. The radioactivity was measured using a liquid scintillation counter. % Inhibition and IC50 values of the compounds were calculated and analyzed using Microsoft Excel or Sigma Plot 8.0.

O[C@H]1CCCN[C@@H]1CCCn1cnc2c(Cl)c(Cl)ccc21 [Example 1-1, (2R,3S)-2-(3-(4,5-dichloro-1H-benzo[d]imidazol-1-yl)propyl)piperidin-3-ol Monohydrochloride]
relative peak area for the main component (HPLC) ([1]; after 1 week): 99.8%
relative peak area for the main component (HPLC) ([1]; after 2 weeks): 99.9%
relative peak area for the main component (HPLC) ([1]; after 4 weeks): 99.8%
relative peak area for the main component (HPLC) ([1]; after 8 weeks): 99.9%
relative peak area for the main component (HPLC) ([1]; initial): 99.9%
change in differential scanning calorimetry analysis pattern [2]: does not show any change in differential scanning calorimetry analysis pattern
weight change, desorption ([3]; 11% RH, Monohydrochloride): 100.8
weight change, desorption ([3]; 33% RH, Monohydrochloride): 101.2
weight change, desorption ([3]; 54% RH, Monohydrochloride): 100.8
weight change, desorption ([3]; 75% RH, Monohydrochloride): 101.7
weight change, sorption ([3]; 11% RH): 100
weight change, sorption ([3]; 33% RH, Monohydrochloride): 100
weight change, sorption ([3]; 54% RH, Monohydrochloride): 101
weight change, sorption ([3]; 75% RH, Monohydrochloride): 101.6
weight change, sorption ([3]; 93% RH, Monohydrochloride): 101.6
relative peak area for the main component (HPLC) ([4]; after 1 week): 99.9%
relative peak area for the main component (HPLC) ([4]; after 2 weeks): 99.8%
relative peak area for the main component (HPLC) ([4]; after 4 weeks): 99.9%
relative peak area for the main component (HPLC) ([4]; after 8 weeks): 99.8%
relative peak area for the main component (HPLC) ([4]; initial): 99.9%
IC50 [5]: 74 nM
